Reference: the NIST ThermoML archive (doi:10.1021/acs.jced.7b00026)
± gives the expanded uncertainty stated by the source.

Columns and labels:
[1] = Liquid; for mass density: 293.15 K, 101.33 kPa, Vibrating tube method
[2] = Boiling temperature at pressure P; settings: Liquid, Ebulliometric method (Recirculating still)
[3] = refractive index (Na D-line) (dimensionless); settings: 293.15 K; 101.33 kPa; Liquid; Standard Abbe refractometry

CCCO [propan-1-ol]
Settings	mass density [kg/m3]	refractive index
[1]	803.66 ± 1	–
[3]	–	1.38512 ± 0.00086

[1], Ebullio
Settings	vapor or sublimation pressure [kPa]
338.15 K	25.92 ± 2
353.15 K	51 ± 4
368.15 K	93.92 ± 7.3

[2]
Settings	Boiling temperature at pressure P [°C]
14.9 kPa	53.83 ± 0.23
25.89 kPa	64.94 ± 0.23
29.9 kPa	67.97 ± 0.2
39.89 kPa	74.30 ± 0.2
51.21 kPa	79.99 ± 0.19
59.89 kPa	83.71 ± 0.19
69.89 kPa	87.44 ± 0.19
79.88 kPa	90.76 ± 0.19
93.89 kPa	94.87 ± 0.19
99.88 kPa	96.46 ± 0.18

CC(C)O [propan-2-ol]
Settings	mass density [kg/m3]	refractive index
[1]	784.99 ± 1	–
[3]	–	1.37718 ± 0.00086

Settings	Boiling temperature at pressure P [°C]	vapor or sublimation pressure [kPa]
[1], 323.15 K	–	23.48 ± 1.8
[1], 338.15 K	–	48.45 ± 3.8
[1], 353.15 K	–	92.48 ± 7.2
[2], 14.9 kPa	41.28 ± 0.23	–
[2], 23.43 kPa	49.88 ± 0.22	–
[2], 29.9 kPa	54.82 ± 0.2	–
[2], 39.89 kPa	60.83 ± 0.2	–
[2], 48.34 kPa	64.99 ± 0.19	–
[2], 59.89 kPa	69.8 ± 0.19	–
[2], 69.89 kPa	73.30 ± 0.19	–
[2], 79.88 kPa	76.49 ± 0.19	–
[2], 92.4 kPa	79.99 ± 0.18	–
[2], 98.88 kPa	81.67 ± 0.18	–

CC(=O)CC(C)C [4-methylpentan-2-one]
Settings	mass density [kg/m3]	refractive index
[1]	800.3 ± 1	–
[3]	–	1.39586 ± 0.00085

[1], Ebullio
Settings	vapor or sublimation pressure [kPa]
323.15 K	9.22 ± 0.72
338.15 K	17.57 ± 1.4
353.15 K	31.41 ± 2.4
368.15 K	54.04 ± 4.2

[2]
Settings	Boiling temperature at pressure P [°C]
9.22 kPa	49.67 ± 0.38
9.9 kPa	51.26 ± 0.38
17.52 kPa	64.70 ± 0.27
18.41 kPa	65.96 ± 0.27
31.36 kPa	79.73 ± 0.22
32.13 kPa	80.39 ± 0.22
39.89 kPa	86.5 ± 0.2
53.99 kPa	95.31 ± 0.2
69.89 kPa	103.21 ± 0.19
